Here are results for 13 compounds from patent US7273846B2, “Selective melanin-concentrating hormone type-1 receptor agonists” (priority 2002, dated 2007).

The structures appear in SMILES notation. pEC50: −log10 of the molar value. Where two headings read alike, the source gives them in different places. Residues, ends and D or L forms follow the SMILES beside them. Where only a bound is given, the exact number is not on record here.

Experiment [1] concerns the target T1, MCH-1R (Homo sapiens, UniProt Q99705). As to the kind of experiment: Aequorin bioluminescence functional assay, 293AEQ17/MCH-1R cells. Also on record: expressed in transfected cells. The note with it: for MCH-1R Activation %: human MCH = 100, activation at 10 μM concentration. The experiment is classed as cell-based. The protocol:
(§1) The aequorin bioluminescence assay is a reliable test for identifying G-protein-coupled receptors that couple through the G protein subunit family consisting of Gq and G11. Gq and G11 coupling leads to the activation of phospholipase C, mobilization of intracellular calcium, and activation of protein kinase C.
Stable cell lines expressing either the MCH-1R or the MCH-2R and the aequorin reporter protein were used. The assay was performed using a Luminoskan RT luminometer (Labsystems Inc., Gaithersburg, Md.) controlled by custom software written for a Macintosh PowerPC 6100.
(§2) The cells were harvested, washed once in ECB medium, and resuspended to 500,000 cells/mL. 100 μL of cell suspension (corresponding to 5×10^4 cells) was then injected into the test plate containing the hMCH peptides, and the integrated light emission was recorded over 30 seconds, in 0.5-s units. 20 μL of lysis buffer (0.1% final Triton X-100 concentration) was then injected and the integrated light emission recorded over 10 seconds, in 0.5-s units. The “fractional response” values for each well were calculated by taking the ratio of the integrated response to the initial challenge to the total integrated luminescence including the Triton X-100 lysis response.

Experiment [2] deals with MCH-2R (Homo sapiens, UniProt Q969V1). Briefly: Aequorin bioluminescence functional assay, 293AEQ17/MCH-2R cells. On the set-up: expressed in transfected cells; MCH-2R Activation %: concentration or dose not given beside the values. Particulars: for MCH-2R Activation %: human MCH = 100; for pEC50: aequorin, 293AEQ17/MCH-2R cells. Format: cell-based.
MCH-2R, sequence (Q969V1 whole entry): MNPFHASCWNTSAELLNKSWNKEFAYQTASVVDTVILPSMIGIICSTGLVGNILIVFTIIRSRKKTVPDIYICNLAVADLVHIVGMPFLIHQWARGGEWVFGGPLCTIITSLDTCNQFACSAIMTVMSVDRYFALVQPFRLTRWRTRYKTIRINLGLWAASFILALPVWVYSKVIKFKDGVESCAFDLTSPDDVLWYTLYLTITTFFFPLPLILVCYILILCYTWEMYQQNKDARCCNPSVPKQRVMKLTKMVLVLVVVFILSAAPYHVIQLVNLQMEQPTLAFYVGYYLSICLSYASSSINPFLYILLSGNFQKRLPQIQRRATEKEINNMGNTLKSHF
Description: as §1
Stable cell lines expressing either the MCH-1R or the MCH-2R and the aequorin reporter protein were used.
as §2

Experiment [3] deals with T1, MCH-1R.
Description: For transient expression, COS-7 cells were cultured in Dulbecco's modified Eagle medium (Gibco BRL, Rockville, Md.) with 10% heat inactivated fetal calf serum.
A suspension of 7×10^6 COS-7 cells were transfected with 20 μg of pCI-neo/MCH-2R plasmid by electroporation and cells were harvested after 60-72 hours. Membranes were prepared from transient and stable transfectants by hypotonic lysis, frozen in liquid nitrogen, and stored at −80° C.
Assays were optimized with respect to membrane preparations: for CHO/MCH-1R membranes, 1 μg of membranes per well yielded a>6× specific binding window and for COS or CHO MCH-2R membranes, 8 μg of membrane protein yielded a window of about 3×.
Specific binding is defined as the difference between total binding and non-specific binding conducted in the presence of 500 nM unlabeled hMCH. […] After equilibrating at room temperature for 3 hours, the plates were read in a TopCount (Packard, Meriden, Conn.). IC50 calculations were performed using Prism 3.0 (GraphPad. Software, San Diego, Calif.). The IC50 values were measured in three different experiments.
Setting [4] is: aequorin, 293AEQ17/MCH-1R cells, read-out: MCH-1R EC50.

T1 sequence (Q99705 whole entry): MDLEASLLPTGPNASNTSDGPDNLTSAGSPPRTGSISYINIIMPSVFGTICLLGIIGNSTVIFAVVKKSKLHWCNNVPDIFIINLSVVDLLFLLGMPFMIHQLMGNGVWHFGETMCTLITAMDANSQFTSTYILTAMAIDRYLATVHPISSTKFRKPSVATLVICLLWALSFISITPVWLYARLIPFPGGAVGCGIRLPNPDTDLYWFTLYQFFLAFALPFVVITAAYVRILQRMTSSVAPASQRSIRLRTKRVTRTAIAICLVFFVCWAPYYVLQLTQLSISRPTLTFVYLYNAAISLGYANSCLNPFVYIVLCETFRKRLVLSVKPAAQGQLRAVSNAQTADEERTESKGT

On to `CSCC[C@@H]1NC(=O)[C@@H](NC(=O)[C@H](CCCNC(=N)N)NC(=O)[C@H](CC(C)C)NC(=O)[C@H](CCSC)NC(=O)[C@H](CC(=O)O)NC(=O)[C@H](Cc2ccccc2)NC(=O)[C@@H](N)CC(=O)O)CSSC[C@@H](C(=O)N[C@@H](Cc2c[nH]c3ccccc23)C(=O)N[C@@H](CCC(N)=O)C(=O)N[C@H](C(=O)O)C(C)C)NC(=O)[C@@H]2CCCN2C(=O)[C@H](CCCNC(=N)N)NC(=O)[C@H](Cc2ccc(O)cc2)NC(=O)[C@H](C(C)C)NC(=O)[C@H](CCCNC(=N)N)NC(=O)CNC(=O)[C@H](CC(C)C)NC1=O` [SEQ. ID. NO. 1, human MCH, reference compound], for which the “MCH-1R Activation %” value in experiment [1] is reported as 100%. The “MCH-2R Activation %” value in experiment [2] came to 100%.

Usually pEC50 stands for −log10 of the EC50, conventionally taken in molar units. In the case of `CSCC[C@@H]1NC(=O)[C@@H](NC(=O)[C@H](CCCNC(=N)N)NC(C)=O)CSSC[C@@H](C(N)=O)NC(=O)[C@@H]2CCCN2C(=O)[C@H](CCCNC(=N)N)NC(=O)[C@H](Cc2ccc(O)cc2)NC(=O)[C@H](C(C)C)NC(=O)[C@H](CCCNC(=N)N)NC(=O)[C@H](CCC(=O)O)NC(=O)[C@H](CC(C)C)NC1=O` [SEQ. ID. NO. 28], in experiment [1], the pEC50 is less than 5.00, the “agonism at hMCH-1R in words” value was “practically inactive” and the “MCH-1R Activation %” value came out at 21%. In addition, in experiment [2], the “agonism at hMCH-2R in words” value was “practically inactive” and the “MCH-2R Activation %” value is 22%.

As to `CSCC[C@@H]1NC(=O)[C@@H](NC(=O)[C@@H](CCCNC(N)=O)NC(C)=O)CSSC[C@@H](C(N)=O)NC(=O)[C@@H]2CCCN2C(=O)[C@H](CCCNC(=N)N)NC(=O)[C@H](Cc2ccc(O)cc2)NC(=O)[C@H](C(C)C)NC(=O)[C@H](CCCNC(=N)N)NC(=O)CNC(=O)[C@H](CC(C)C)NC1=O` [SEQ. ID. NO. 14], in experiment [3], the “Selectivity 2/1 (MCH-2R/MCH-1R IC50 binding ratio)” value is 43. Moreover, in experiment [3] (relative to the D-Arg^6 compound), the “fold lower binding affinity for hMCH-1R” value was “about 30 fold”. In experiment [1], the “agonism at hMCH-1R in words” value was “lower than those of the L-Arg^6 compound”, the “Selectivity 2/1 (MCH-2R/MCH-1R EC50 activity ratio)” value worked out at 0.3 and the “MCH-1R Activation %” value came out at 91%. Besides, the pEC50 in experiment [1] (setting [4]) is 6.04. Also, in experiment [2], the “agonism at hMCH-2R in words” value is on record as “lower than those of the L-Arg^6 compound”, the pEC50 was 6.51 and the “MCH-2R Activation %” value is 68%.

Take `CSCC[C@@H]1NC(=O)[C@@H](NC(=O)[C@H](CCCNC(=N)N)NC(C)=O)CSSC[C@@H](C(N)=O)NC(=O)[C@@H]2CCCN2C(=O)[C@H](CCCNC(=N)N)NC(=O)[C@H](Cc2ccc(O)cc2)NC(=O)[C@H](C(C)C)NC(=O)[C@H](CCCNC(=N)N)NC(=O)[C@H](CC(C)C)NC(=O)[C@H](CC(C)C)NC1=O` [SEQ. ID. NO. 17]: the “Selectivity 2/1 (MCH-2R/MCH-1R IC50 binding ratio)” value in experiment [3] was 1900. For the same compound, in experiment [1], the “Selectivity 2/1 (MCH-2R/MCH-1R EC50 activity ratio)” value was determined as 1.8 and the “MCH-1R Activation %” value amounted to 123%. Moreover, the “MCH-2R Activation %” value in experiment [2] was 74%.

For `CSCC[C@@H]1NC(=O)[C@@H](NC(=O)[C@H](CCCNC(=N)N)NC(C)=O)CSSC[C@@H](C(N)=O)NC(=O)[C@@H]2CCCN2C(=O)[C@H](CCCNC(=N)N)NC(=O)[C@H](Cc2ccc(O)cc2)NC(=O)[C@H](C(C)C)NC(=O)[C@H](CCCNC(=N)N)NC(=O)[C@H](C)NC(=O)[C@H](CC(C)C)NC1=O` [SEQ. ID. NO. 16] (HELM PEPTIDE1{[ac].R.C.M.L.A.R.V.Y.R.P.C.[am]}$PEPTIDE1,PEPTIDE1,3:R3-12:R3$$$V2.0), in experiment [3], the “Selectivity 2/1 (MCH-2R/MCH-1R IC50 binding ratio)” value is recorded as 16. Further, in experiment [1], the “Selectivity 2/1 (MCH-2R/MCH-1R EC50 activity ratio)” value is 0.29 and the “MCH-1R Activation %” value was 121%. In addition, in experiment [1] (setting [4]), the negative logarithm of the EC50 (pEC50) was 7.29. Moreover, in experiment [2], the “MCH-2R Activation %” value amounted to 102%.

Consider `CSCC[C@@H]1NC(=O)[C@@H](NC(=O)[C@H](CCCNC(=N)N)NC(C)=O)CSSC[C@@H](C(N)=O)NC(=O)[C@@H]2CCCN2C(=O)[C@H](CCCNC(=N)N)NC(=O)[C@H](Cc2ccc(O)cc2)NC(=O)[C@H](C(C)C)NC(=O)[C@H](CCCNC(=N)N)NC(=O)[C@H](Cc2ccc3ccccc3c2)NC(=O)[C@H](CC(C)C)NC1=O` [SEQ. ID. NO. 21], for which, in experiment [3], the “Selectivity 2/1 (MCH-2R/MCH-1R IC50 binding ratio)” value is listed as 14. Further, in experiment [1] (setting [4]), the pEC50 was less than 5.00. For the same compound, the “MCH-1R Activation %” value in experiment [1] is recorded as 7%. Also, the “MCH-2R Activation %” value in experiment [2] was determined as 105%.

For `CCCC[C@@H]1NC(=O)[C@@H](NC(=O)[C@H](N)CCCNC(=N)N)CSSC[C@@H](C(N)=O)NC(=O)[C@@H]2CCCN2C(=O)[C@H](CCCNC(=N)N)NC(=O)[C@H](Cc2ccc(O)cc2)NC(=O)[C@H](C(C)C)NC(=O)[C@H](CCCNC(=N)N)NC(=O)[C@H](CC(N)=O)NC(=O)[C@H](CC(C)C)NC1=O` [SEQ. ID. NO. 32] (HELM PEPTIDE1{[dR].C.[Nle].L.N.R.V.Y.R.P.C.[am]}$PEPTIDE1,PEPTIDE1,2:R3-11:R3$$$V2.0), the “agonism at hMCH-1R in words” value in experiment [1] was “potent and selective hMCH-1R agonists”.

Regarding `CSCC[C@@H]1NC(=O)[C@@H](NC(=O)[C@@H](Cc2ccccc2)NC(C)=O)CSSC[C@@H](C(N)=O)NC(=O)[C@@H]2CCCN2C(=O)[C@H](CCCNC(=N)N)NC(=O)[C@H](Cc2ccc(O)cc2)NC(=O)[C@H](C(C)C)NC(=O)[C@H](CCCNC(=N)N)NC(=O)CNC(=O)[C@H](CC(C)C)NC1=O` [SEQ. ID. NO. 9], in experiment [3], the “Selectivity 2/1 (MCH-2R/MCH-1R IC50 binding ratio)” value is 1380. Moreover, in experiment [1], the “Selectivity 2/1 (MCH-2R/MCH-1R EC50 activity ratio)” value is reported as 7 and the “MCH-1R Activation %” value is reported as 117%. Besides, in experiment [1] (setting [4]), the pEC50 was 7.18. Besides, the “MCH-2R Activation %” value in experiment [2] came out at 79%.

Consider `CSCC[C@@H]1NC(=O)[C@@H](NC(=O)[C@H](CCCNC(=N)N)NC(C)=O)CSSC[C@@H](C(N)=O)NC(=O)[C@@H]2CCCN2C(=O)[C@H](CCCNC(=N)N)NC(=O)[C@H](Cc2ccc(O)cc2)NC(=O)[C@H](C(C)C)NC(=O)[C@H](CCCNC(=N)N)NC(=O)[C@H](CCCNC(=N)N)NC(=O)[C@H](CC(C)C)NC1=O` [SEQ. ID. NO. 23] (HELM PEPTIDE1{[ac].R.C.M.L.R.R.V.Y.R.P.C.[am]}$PEPTIDE1,PEPTIDE1,3:R3-12:R3$$$V2.0), for which, in experiment [3], the “Selectivity 2/1 (MCH-2R/MCH-1R IC50 binding ratio)” value was determined as 0.7. In addition, in experiment [1] (setting [4]), the negative-log EC50 (pEC50) was less than 5.00. For the same compound, the “MCH-1R Activation %” value in experiment [1] is 7%. Also, the “MCH-2R Activation %” value in experiment [2] was determined as 38%.

As for `CSCC[C@@H]1NC(=O)[C@@H](NC(=O)[C@@H](C)NC(C)=O)CSSC[C@@H](C(N)=O)NC(=O)[C@@H]2CCCN2C(=O)[C@H](CCCNC(=N)N)NC(=O)[C@H](Cc2ccc(O)cc2)NC(=O)[C@H](C(C)C)NC(=O)[C@H](CCCNC(=N)N)NC(=O)CNC(=O)[C@H](CC(C)C)NC1=O` [SEQ. ID. NO. 6], the “Selectivity 2/1 (MCH-2R/MCH-1R IC50 binding ratio)” value in experiment [3] came out at 3500. Also, in experiment [1], the “Selectivity 2/1 (MCH-2R/MCH-1R EC50 activity ratio)” value is 30 and the “MCH-1R Activation %” value worked out at 109%. Further, the negative logarithm of the EC50 (pEC50) in experiment [1] (setting [4]) was 6.80. Also, the “MCH-2R Activation %” value in experiment [2] is listed as 51%.

As for `CSCC[C@@H]1NC(=O)[C@@H](NC(=O)[C@H](CCCNC(=N)N)NC(C)=O)CSSC[C@@H](C(N)=O)NC(=O)[C@@H]2CCCN2C(=O)[C@H](CCCNC(=N)N)NC(=O)[C@H](Cc2ccc(O)cc2)NC(=O)[C@H](C(C)C)NC(=O)[C@H](CCCNC(=N)N)NC(=O)[C@H](CCCNC(N)=O)NC(=O)[C@H](CC(C)C)NC1=O` [SEQ. ID. NO. 27], in experiment [3], the “Selectivity 2/1 (MCH-2R/MCH-1R IC50 binding ratio)” value worked out at 42. In experiment [1], the “Selectivity 2/1 (MCH-2R/MCH-1R EC50 activity ratio)” value worked out at 0.3 and the “MCH-1R Activation %” value is recorded as 91%. In addition, the pEC50 in experiment [1] (setting [4]) is 6.04. Besides, the “MCH-2R Activation %” value in experiment [2] turned out to be 68%.

For `CSCC[C@@H]1NC(=O)[C@@H](NC(=O)[C@@H](CCCNC(=N)N)NC(C)=O)CSSC[C@@H](C(N)=O)NC(=O)[C@@H]2CCCN2C(=O)[C@H](C)NC(=O)[C@H](Cc2ccc(O)cc2)NC(=O)[C@H](C(C)C)NC(=O)[C@H](CCCNC(=N)N)NC(=O)[C@H](CC(N)=O)NC(=O)[C@H](CC(C)C)NC1=O` [SEQ. ID. NO. 33] (HELM PEPTIDE1{[ac].[dR].C.M.L.N.R.V.Y.A.P.C.[am]}$PEPTIDE1,PEPTIDE1,3:R3-12:R3$$$V2.0), in experiment [1], the “fold more selective as agonist for hMCH-1R than hMCH-2R” value was “about 50 fold” and the “MCH-1R Activation %” value was determined as 109%. In addition, the pEC50 in experiment [1] (setting [4]) was 6.59. Besides, in experiment [1] (relative to Ac-hMCH(6-16)-NH2), the “fold lower agonist activity at hMCH-1R” value is recorded as 5 fold. Also, in experiment [2], the pEC50 is less than 5.00 and the “MCH-2R Activation %” value was determined as 17%.

`CSCC[C@@H]1NC(=O)[C@@H](NC(=O)[C@H](CCCNC(=N)N)NC(C)=O)CSSC[C@@H](C(N)=O)NC(=O)[C@@H]2CCCN2C(=O)[C@H](CCCNC(=N)N)NC(=O)[C@H](Cc2ccc(O)cc2)NC(=O)[C@H](C(C)C)NC(=O)[C@H](CCCNC(=N)N)NC(=O)CNC(=O)[C@H](CC(C)C)NC1=O` [SEQ. ID. NO. 2, Ac-hMCH(6-16)-NH2, reference compound]: the “MCH-1R Activation %” value in experiment [1] was 99%.
